Assay results taken from paper PMC7728077, “Double-Headed Cationic Lipopeptides: An Emerging Class of Antimicrobials” (International Journal of Molecular Sciences, 2020).
Values after ≈ are worked out from the molar mass of the structure shown. Square brackets hold non-standard residues; d marks the D form. Peptide text beside a SMILES is read from it. * marks the point of attachment. Palmitoyl = CCCCCCCCCCCCCCCC(=O)*; Orn = NCCC[C@H](N)C(=O)O; Dab = NCC[C@H](N)C(=O)O; Dap = NC[C@H](N)C(=O)O

Experiments:
[1] = test system: LNCaP human prostate carcinoma; format: cell-based
Protocol: (§1) In the case of evaluation of cytotoxicity towards different types of the cancer cell lines (A375, A549, HCT-116, HT-29, and LNCaP, respective cells were seeded in 96-well plates (4500 cell/well) in the RPMI-1640 medium supplemented with 5% FBS without antibiotics and incubated for 24 h before stimulation with the lipopeptides. The next day, the cells were exposed to the effect of the serially diluted compounds added at concentrations ranging from 1 to 25 µg/mL for a period of 48 h. After the treatment, cells viability was evaluated by means of MTT assays, according to standard protocol, as just described. The experiment was repeated three times for each cell line.
(§2) Determination of the half-maximum inhibitory concentrations (IC50) was done using GraphPad Prism 5 software (San Diego, CA, USA) based on the dose-response curves. The logarithm of the different concentrations of compounds was plotted against the percentage of inhibition in cell viability as compared with control probes, treated as 100%.

[2] = test system: A549 human epithelial lung carcinoma; format: cell-based
Protocol: as §1, §2

[3] = test system: HCT-116 human colorectal carcinoma; format: cell-based
Protocol: as §1, §2

[4] = test system: A375 human malignant melanoma cell line; format: cell-based
Protocol: as §1, §2

[5] = test system: HT-29 human colorectal adenocarcinoma; format: cell-based
Protocol: as §1, §2

[6] = test system: MCF-7 breast cancer cell line; format: cell-based, human
[7] = test system: HaCaT human keratinocyte cell line; format: cell-based
Protocol: (§3) Cytotoxicity was determined towards immortalized human HaCaT keratinocytes (DKFZ, Heidelberg, Germany), transformed human fibroblast cell line 46BR.1N (ECACC), as well as the human melanoma (A375), human lung cancer (A549), human colon cancer (HCT-116), human colon adenocarcinoma (HT-29), and human prostate cancer (LNCaP) cell lines. Keratinocytes and fibroblast cell lines were maintained in a humidified atmosphere with 5% CO2 at 37 °C in a Dulbecco’s modified Eagle’s medium (DMEM) (Sigma-Aldrich, Steinheim, Germany), which contained 4500 mg/L of glucose, 584 mg/L of L-glutamine, sodium pyruvate, and sodium bicarbonate. Additionally, the medium was supplemented with 10% of fetal bovine serum (FBS) (Sigma-Aldrich, Steinheim, Germany), 100 U/mL of penicillin, and 100 µg/mL of streptomycin (Sigma-Aldrich, Steinheim, Germany). The cells were grown in culture dishes (BD, Franklin Lakes, NJ, USA) and the medium was changed every 2 days. Afterwards, the fibroblasts and keratinocytes were harvested using a standard trypsin-EDTA solution, centrifuged, suspended in a medium supplemented with 10% FBS and seeded at a density of 5500–6000 cells per well into 96-well plates. After 24 h, the medium was exchanged with a serum- and antibiotic-free DMEM. The next day, serially diluted solutions of the lipopeptides prepared in a fresh FBS- and antibiotic-free medium were added to the wells. The potential cytotoxic effect of the compounds was analyzed over the concentration range of 1–25 µg/mL. After addition of the lipopeptides, cells were incubated for the next 24 h. At the end of the experiment, the cells were treated with 20 µL of MTT (5 mg/mL in PBS). After 3 h at 37 °C under 5% CO2, the medium was discarded and replaced by 6 mM HCl in isopropanol. As soon as the purple crystals of formazan were completely solubilized, absorbance was read at 570 nm with a plate reader. The optical density of the wells without the tested compounds were regarded as the positive control. The MTT assay was performed in triplicate for each cell line.
as §2

[8] = test system: 46BR.1N human skin fibroblasts cell line; format: cell-based
Protocol: as §3, §2

[9] = test system: Escherichia coli ATCC 25922; format: cell-based; conditions: ATCC 25922, 18 h
Text: (§4) Fmoc-Lys(Boc)-OH and the coupling reagents were purchased from GL Biochem (Shanghai, China). Palmitoyl Fmoc-amino acids: Fmoc-Lys(C16)-OH, Fmoc-Orn(C16)-OH, Fmoc-Dab(C16)-OH, and Fmoc-Dap(C16)-OH were acquired from Iris Biotech GmbH (Marktredwitz, Germany). The resin and solvents were purchases from Rapp Polymere (Tübingen, Germany), Merck (Darmstadt, Germany), and Avantor Performance Materials (Gliwice, Poland), respectively. The phospholipids, 1,2-dipalmitoyl-sn-glycero-3-phosphocholine (DPPC), 1,2-dipalmitoyl-sn-glycero-3-[phospho-rac-(1-glycerol)] (DPPG), 1-palmitoyl-2-oleoyl-glycero-3-phosphocholine (POPC) and 1-palmitoyl-2-oleoyl-sn-glycero-3-[phospho-rac-(1-glycerol)] (POPG), were purchased from Avanti Polar Lipids (Alabaster, AL, USA). LPS E. coli 055:B5 and phosphate buffered saline (PBS) were from Sigma-Aldrich (Steinheim, Germany). The Mueller Hinton broth was bought from BIOCORP (Warsaw, Poland) and the RPMI-1640 medium from Sigma-Aldrich (Steinheim, Germany). LIVE/DEAD™ BacLight™ Bacterial Viability Kit was obtained from Thermo Fisher Scientific (Waltham, MA, USA). Bacterial strains (Escherichia coli ATCC 25922, Pseudomonas aeruginosa ATCC 9027, Staphylococcus aureus ATCC 25923, Staphylococcus epidermidis ATCC 1922) and the fungal strain (Candida albicans ATCC 10231) were obtained from the Polish Collection of Microorganisms, Polish Academy of Science, Institute of Immunology and Experimental Therapy, Wroclaw, Poland.
(§5) Antimicrobial activity of the lipopeptides was determined according to the broth microdilution guidelines recommended by the Clinical and Laboratory Standards Institute (CLSI). Minimum inhibitory concentrations (MICs) were assumed as the lowest concentration of the peptide solution, at which the visible growth of microorganisms was inhibited. MIC values of lipopeptides against bacteria were evaluated in the Mueller–Hinton broth and against fungus in the RPMI-1640 medium. Initial inoculums of bacteria and fungus (with concentrations of 5 × 10^5 CFU/mL and 2 × 10^3 CFU/mL, respectively) were exposed to increasing concentrations of lipopeptides solutions over the range of 1–512 µg/mL. […] The 96-well plates filled with appropriate inoculums and the tested compounds were incubated for 18 h at 37 °C. Presented values are the mean of the results obtained in three independent experiments.

[10] = test system: Staphylococcus epidermidis ATCC 1922; format: cell-based; conditions: ATCC 1922, 18 h
Text: as §4, §5

[11] = test system: Candida albicans ATCC 10231; format: cell-based; conditions: ATCC 10231, 18 h
Text: as §4, §5

[12] = test system: Staphylococcus aureus ATCC 25923; format: cell-based; conditions: ATCC 25923, 18 h
Text: as §4, §5

[13] = test system: Pseudomonas aeruginosa ATCC 9027; format: cell-based; conditions: ATCC 9027, 18 h
Text: as §4, §5

[14] = literature value used for comparison; cited from earlier work
Text: As expected, the critical aggregation concentration (CAC) values increased in the homologue series, i.e., Lys, Orn, Dab, and Dap, with a linear relationship of log CAC vs. number of methylene groups in the side chain of palmitoylated residue (Figure S3, Supplementary Materials). […] The modification of the acyl chain position separated the posi ...

[15] = Analytical RP-HPLC retention time as measure of hydrophobicity; format: physicochemical; conditions: Jupiter 4 µ Proteo 90 Å 250 x 4.60 mm, linear gradient 15-90% B in A in 30 min, 1 ml/min, A 0.1% aqueous TFA, B 80% acetonitrile in water with 0.1% TFA
Protocol: The lipopeptides were purified in a Waters RP-HPLC preparative system (Jupiter 4 µ Proteo column, 90 Å, 250 × 10 mm) with the linear gradient of solution B in A from 30% to 60% (A, 0.1% solution of TFA in water and B, 80% solution of ACN in water containing 0.1% of TFA) in 40 min with a flow rate of 5 mL/min. Final purity of the analogues (at least 97%) was determined using an analytical RP-HPLC Shimadzu system (Jupiter 4 µ Proteo column, 90 Å, 250 × 4.60 mm) with the linear gradient of solution B in A from 15% to 90% in 30 min with a flow rate of 1 mL/min. Identity of lipopeptides was confirmed by MALDI-TOF mass spectrometry. Analytical data of the synthesized analogues are presented in Table S1 (Supplementary Materials). ^a linear gradient 15-90% of B in A for 30 min, flow rate 1 ml/min, RP-HPLC Shimadzu system, column: Jupiter 4 µ Proteo, 90 Å, 250 x 4.60 mm; A – 0.1% aqueous TFA solution, B – 80% solution of acetonitrile in water with 0.1% of TFA; ^b molecular masses were determined using MALDI-TOF mass spectrometer.

Compound | IC50, LNCaP (48h) [1] [µg/mL] | IC50, A549 (48h) [2] [µg/mL] | IC50, HCT-116 (48h) [3] [µg/mL] | IC50, A375 (48h) [4] [µg/mL] | IC50, HT-29 (48h) [5] [µg/mL] | IC50, MCF-7 (48h) [6] [µg/mL] | IC50, HaCaT (24h) [7] [µg/mL] | IC50, 46BR.1N (24h) [8] [µg/mL] | MIC, E. coli [9] [µg/mL] | MIC, S. epidermidis [10] [µg/mL] | MIC, C. albicans [11] [µg/mL] | MIC, S. aureus [12] [µg/mL] | MIC, P. aeruginosa [13] [µg/mL] | CAC of N-terminally palmitoylated peptide [14] [mM] | Retention time (used as measure of hydrophobicity) [15] [min]
CCCCCCCCCCCCCCCC(=O)NCC[C@H](NC(=O)[C@H](CCCCN)NC(=O)[C@@H](N)CCCCN)C(=O)N[C@@H](CCCCN)C(=O)N[C@@H](CCCCN)C(N)=O [KK(DabC16)KK-NH2] (H-KK[Dab](Palmitoyl)KK-NH2) | >25 | >25 | 16.74 ± 0.33 (≈ 19.3 µM) | >25 | 20.75 ± 0.42 (≈ 23.9 µM) | >25 | 16.95 ± 1.43 (≈ 19.5 µM) | 9.45 ± 2.13 (≈ 10.9 µM) | 8 (≈ 9.21 µM) | 8 (≈ 9.21 µM) | 32 (≈ 36.9 µM) | 4 (≈ 4.61 µM) | 32 (≈ 36.9 µM) | – | –
CCCCCCCCCCCCCCCC(=O)NC[C@H](NC(=O)[C@H](CCCCN)NC(=O)[C@@H](N)CCCCN)C(=O)N[C@@H](CCCCN)C(=O)N[C@@H](CCCCN)C(N)=O [KK(DapC16)KK-NH2] (H-KK[Dap](Palmitoyl)KK-NH2) | >25 | >25 | 23.05 ± 0.92 (≈ 27 µM) | >25 | 24.68 ± 0.49 (≈ 28.9 µM) | >25 | – | 12.77 ± 1.32 (≈ 14.9 µM) | 8 (≈ 9.37 µM) | 8 (≈ 9.37 µM) | 256 (≈ 300 µM) | 4 (≈ 4.68 µM) | 32 (≈ 37.5 µM) | – | –
CCCCCCCCCCCCCCCC(=O)NC[C@H](NC(=O)[C@@H](N)CCCCN)C(=O)N[C@@H](CCCCN)C(N)=O [K(DapC16)K-NH2] (H-Lys-[Dap](Palmitoyl)-Lys-NH2) | 14.0 ± 0.41 (≈ 23.4 µM) | >25 | 14.90 ± 0.30 (≈ 24.9 µM) | 11.63 ± 0.26 (≈ 19.5 µM) | 20.24 ± 0.81 (≈ 33.9 µM) | 20.11 ± 2.51 (≈ 33.6 µM) | 7.25 ± 2.18 (≈ 12.1 µM) | 8.68 ± 1.00 (≈ 14.5 µM) | 8 (≈ 13.4 µM) | 4 (≈ 6.69 µM) | 16 (≈ 26.8 µM) | 8 (≈ 13.4 µM) | 8 (≈ 13.4 µM) | – | –
C16-KKK-NH2 [Peptide C16-KKK-NH2] | – | – | – | – | – | – | – | – | – | – | – | – | – | 4.8 | –
CCCCCCCCCCCCCCCC(=O)NCCC[C@H](NC(=O)[C@H](CCCCN)NC(=O)[C@@H](N)CCCCN)C(=O)N[C@@H](CCCCN)C(=O)N[C@@H](CCCCN)C(N)=O [KK(OC16)KK-NH2] (H-KK[Orn](Palmitoyl)KK-NH2) | >25 | >25 | 14.90 ± 0.75 (≈ 16.9 µM) | >25 | 19.36 ± 0.58 (≈ 21.9 µM) | >25 | 16.65 ± 2.29 (≈ 18.9 µM) | 8.21 ± 1.12 (≈ 9.31 µM) | 8 (≈ 9.07 µM) | 4 (≈ 4.53 µM) | 32 (≈ 36.3 µM) | 8 (≈ 9.07 µM) | 32 (≈ 36.3 µM) | – | 21.328
